Source: US9725437B2, “Fatty acid synthase inhibitors” (GlaxoSmithKline Intellectual Property (No.2) Limited, priority 2013, dated 2017)

Key:
[1] = Mouse pharmacokinetic study (iv clearance, oral exposure); type: in vivo; set-up: key to Mouse po DNAUC: ‘poor’ for DNAUC ≦101 ng·h/mL/mg/kg; ‘good’ for DNAUC >101 ng·h/mL/mg/kg; In cases where both ‘poor’ and ‘good’ oral exposures were observed, a designation of ‘mixed’ is utilized; details: for Mouse iv CI: in vivo clearance, average of 1 to 4 animals; for Mouse po DNAUC: dose-normalized AUC, 2-3 animals per experiment
Protocol: (§1) Mouse and rat pharmacokinetic studies were performed generally as described in Xiang et al. (Preclinical drug metabolism and pharmacokinetic evaluation of GW844520, a novel mitochondrial electron transport inhibitor. H Xiang, J McSurdy-Freed, G Subbanagounder, E Hugger, R Bambal, C Han, S Ferrar, D Gargallo and CB Davis. (2006) Journal of Pharmaceutical Sciences, 95:2657-2672) and Davis et al. (Comparative preclinical drug metabolism and pharmacokinetic evaluation of novel 4-aminoquinoline anti-malarials. C B Davis, R Bambal, G S Moorthy, E Hugger, H Xiang, B Kevin Park, A E Shone, P M O'Neill and S A Ward (2009) Journal of Pharmaceutical Sciences, 98:362-377) with the following exceptions. For some mouse studies, cannulated animals were used and serial blood samples were collected from the individuals (n=2/compound/route of administration) as opposed to using a composite study design. In some iv rat studies, drugs were infused for 1 or 2 h and a single blood sample collected to estimate clearance assuming steady-state conditions (n=2/compound). This assay was employed as an initial PK screen to prioritize compounds for further study.
(§2) Rodent pharmacokinetic (PK) data were collected on the exemplified compounds according to the methods described above. In vivo clearance (Cl) data are reported as the average of 1 to 4 animals across 1 to 2 experiments and are categorized as follows. In rats, a ‘low’ clearance is designated as <17 mL/min/kg, a ‘moderate’ clearance is designated as 17-39 mL/min/kg, and a ‘high’ clearance is designated as >39 mL/min/kg. In mice, a ‘low’ clearance is designated as <30 mL/min/kg, a ‘moderate’ clearance is designated as 30-70 mL/min/kg, and a ‘high’ clearance is designated as >70 mL/min/kg. In vivo oral exposure (po) data, reported as average dose-normalized AUCs (DNAUC) per experiment of 2-3 animals, are categorized as ‘poor’ for DNAUC ≦101 ng·h/mL/mg/kg and ‘good’ for DNAUC >101 ng·h/mL/mg/kg. When multiple experiments were performed under different conditions, the totality of the data was considered. In cases where both ‘poor’ and ‘good’ oral exposures were observed, a designation of ‘mixed’ is utilized to represent mixed and unoptimized results.

[2] = Rat pharmacokinetic study (iv clearance, oral exposure); type: in vivo; details: for Rat iv CI: in vivo clearance, average of 1 to 4 animals; for Rat po DNAUC: dose-normalized AUC, 2-3 animals per experiment
Protocol: as §1, §2

SMILES	Mouse iv CI [1]	Mouse po DNAUC [1]	Rat iv CI [2]	Rat po DNAUC [2]
CCC(=O)N1CC[C@@H](Cc2nn(C)c(=O)n2-c2ccc(-c3ccc4cc(Cl)cnc4c3)cc2F)C1 [Example 8, (S)-4-(4-(3-chloroquinolin-7-yl)-2-fluorophenyl)-1-methyl-3-((1-propionylpyrrolidin-3-yl)methyl)-1H-1,2,4-triazol-5(4H)-one]	low (In mice, a ‘low’ clearance is designated as <30 mL/min/kg)	good (‘good’ for DNAUC >101 ng·h/mL/mg/kg)	low (In rats, a ‘low’ clearance is designated as <17 mL/min/kg)	good (‘good’ for DNAUC >101 ng·h/mL/mg/kg)
CCC(=O)N1CC[C@@H](Cc2nn(C)c(=O)n2-c2ccc(-c3ccc4cc(F)cnc4c3)cc2F)C1 [Example 10, (S)-4-(2-fluoro-4-(3-fluoroquinolin-7-yl)phenyl)-1-methyl-3-((1-propionylpyrrolidin-3-yl)methyl)-1H-1,2,4-triazol-5(4H)-one]	low (In mice, a ‘low’ clearance is designated as <30 mL/min/kg)	–	low (In rats, a ‘low’ clearance is designated as <17 mL/min/kg)	–
O=C(C1CC1)N1CC[C@@H](Cc2n[nH]c(=O)n2-c2ccc(-c3ccc4cccnc4c3)cc2F)C1 [#124 from WO2011/103546A1, 5-{[(3S)-1-(cyclopropylcarbonyl)-3-pyrrolidinyl]methyl}-4-[2-fluoro-4-(7-quinolinyl)phenyl]-2,4-dihydro-3H-1,2,4-triazol-3-one, reference compound]	moderate (a ‘moderate’ clearance is designated as 30-70 mL/min/kg)	poor (‘poor’ for DNAUC ≦101 ng·h/mL/mg/kg)	high (a ‘high’ clearance is designated as >39 mL/min/kg)	poor (‘poor’ for DNAUC ≦101 ng·h/mL/mg/kg)
CCC(=O)N1CC[C@@H](Cc2n[nH]c(=O)n2-c2ccc(-c3ccc4cc(F)cnc4c3)cc2F)C1 [Example 4, (S)-4-(2-fluoro-4-(3-fluoroquinolin-7-yl)phenyl)-3-((1-propionylpyrrolidin-3-yl)methyl)-1H-1,2,4-triazol-5(4H)-one]	low (In mice, a ‘low’ clearance is designated as <30 mL/min/kg)	good (‘good’ for DNAUC >101 ng·h/mL/mg/kg)	low (In rats, a ‘low’ clearance is designated as <17 mL/min/kg)	poor (‘poor’ for DNAUC ≦101 ng·h/mL/mg/kg)
CCC(=O)N1CC[C@@H](Cc2n[nH]c(=O)n2-c2ccc(-c3ccc4cc(C)cnc4c3)cc2F)C1 [Example 5, (S)-4-(2-fluoro-4-(3-methylquinolin-7-yl)phenyl)-3-((1-propionylpyrrolidin-3-yl)methyl)-1H-1,2,4-triazol-5(4H)-one]	low (In mice, a ‘low’ clearance is designated as <30 mL/min/kg)	mixed	low (In rats, a ‘low’ clearance is designated as <17 mL/min/kg)	good (‘good’ for DNAUC >101 ng·h/mL/mg/kg)
CCC(=O)N1CC[C@@H](Cc2n[nH]c(=O)n2-c2ccc(-c3ccc4cc(Cl)cnc4c3)cc2F)C1 [Example 6, (S)-4-(4-(3-chloroquinolin-7-yl)-2-fluorophenyl)-3-((1-propionylpyrrolidin-3-yl)methyl)-1H-1,2,4-triazol-5(4H)-one]	low (In mice, a ‘low’ clearance is designated as <30 mL/min/kg)	mixed	moderate (a ‘moderate’ clearance is designated as 17-39 mL/min/kg)	good (‘good’ for DNAUC >101 ng·h/mL/mg/kg)
CCC(=O)N1CC[C@@H](Cc2n[nH]c(=O)n2-c2ccc(-c3ccc4cccnc4c3)cc2F)C1 [#196 from WO2011/103546A1, 4-[2-fluoro-4-(7-quinolinyl)phenyl]-5-{[(3S)-1-propanoyl-3-pyrrolidinyl]methyl}-2,4-dihydro-3H-1,2,4-triazol-3-one, reference compound]	moderate (a ‘moderate’ clearance is designated as 30-70 mL/min/kg)	poor (‘poor’ for DNAUC ≦101 ng·h/mL/mg/kg)	moderate (a ‘moderate’ clearance is designated as 17-39 mL/min/kg)	poor (‘poor’ for DNAUC ≦101 ng·h/mL/mg/kg)
O=C(C1CC1)N1CC[C@@H](Cc2n[nH]c(=O)n2-c2ccc(-c3ccc4cc(F)cnc4c3)cc2F)C1 [Example 3, (S)-3-((1-(cyclopropanecarbonyl)pyrrolidin-3-yl)methyl)-4-(2-fluoro-4-(3-fluoroquinolin-7-yl)phenyl)-1H-1,2,4-triazol-5(4H)-one]	–	–	moderate (a ‘moderate’ clearance is designated as 17-39 mL/min/kg)	–
Cn1nc(C[C@@H]2CCN(C(=O)C3CC3)C2)n(-c2ccc(-c3ccc4cc(Cl)cnc4c3)cc2F)c1=O [Example 9, (S)-4-(4-(3-chloroquinolin-7-yl)-2-fluorophenyl)-3-((1-(cyclopropanecarbonyl)pyrrolidin-3-yl)methyl)-1-methyl-1H-1,2,4-triazol-5(4H)-one]	low (In mice, a ‘low’ clearance is designated as <30 mL/min/kg)	–	moderate (a ‘moderate’ clearance is designated as 17-39 mL/min/kg)	good (‘good’ for DNAUC >101 ng·h/mL/mg/kg)
O=C(C1CC1)N1CC[C@@H](Cc2n[nH]c(=O)n2-c2ccc(-c3ccc4cc(Cl)cnc4c3)cc2F)C1 [Example 2, (S)-4-(4-(3-chloroquinolin-7-yl)-2-fluorophenyl)-3-((1-(cyclopropanecarbonyl)pyrrolidin-3-yl)methyl)-1H-1,2,4-triazol-5(4H)-one]	low (In mice, a ‘low’ clearance is designated as <30 mL/min/kg)	good (‘good’ for DNAUC >101 ng·h/mL/mg/kg)	moderate (a ‘moderate’ clearance is designated as 17-39 mL/min/kg)	good (‘good’ for DNAUC >101 ng·h/mL/mg/kg)
CCC(=O)N1CC[C@@H](Cc2nn(C)c(=O)n2-c2ccc(-c3ccc4cc(C)cnc4c3)cc2F)C1 [Example 7, (S)-4-(2-fluoro-4-(3-methylquinolin-7-yl)phenyl)-1-methyl-3-((1-propionylpyrrolidin-3-yl)methyl)-1H-1,2,4-triazol-5(4H)-one]	low (In mice, a ‘low’ clearance is designated as <30 mL/min/kg)	good (‘good’ for DNAUC >101 ng·h/mL/mg/kg)	low (In rats, a ‘low’ clearance is designated as <17 mL/min/kg)	good (‘good’ for DNAUC >101 ng·h/mL/mg/kg)
Cc1cnc2cc(-c3ccc(-n4c(C[C@@H]5CCN(C(=O)C6CC6)C5)n[nH]c4=O)c(F)c3)ccc2c1 [Example 1, (S)-3-((1-(cyclopropanecarbonyl)pyrrolidin-3-yl)methyl)-4-(2-fluoro-4-(3-methylquinolin-7-yl)phenyl)-1H-1,2,4-triazol-5(4H)-one]	low (In mice, a ‘low’ clearance is designated as <30 mL/min/kg)	good (‘good’ for DNAUC >101 ng·h/mL/mg/kg)	moderate (a ‘moderate’ clearance is designated as 17-39 mL/min/kg)	poor (‘poor’ for DNAUC ≦101 ng·h/mL/mg/kg)
